What follows are molecules tested on benzodiazepine receptors (assay: in vivo displacement of 3H-flunitrazepam binding from brain benzodiazepine receptors). Details: dose reducing specific 3H-flunitrazepam binding in living mouse brain to 50% of control; test substance intraperitoneally 15 min before 3H-FNM i.v.
Set-up: species or system mice
Description: The pharmaceutical properties of the compounds of the invention can be illustrated by determining their capability for displacing radioactive labelled flunitrazepam from benzodiazepine receptors.
The displacement activity of the compounds of the invention may be found by determining the ED50 value. The ED50 value represents the dose (mg/kg) of a test substance which causes the specific binding of flunitrazepam to benzodiazepine receptors in a living brain to be reduced to 50% of the control value.
Such an in vivo test is carried out as follows:
Principle. Twenty minutes after a dose of ^3 H-flunitrazepam (^3 H-FNM) (200 μCi/kg, i.v.) the amount of specific ^3 H-FNM binding to brain benzodiazepine receptors has reached its maximal value.
Test procedure. Suspensions of test substances (2 mg/ml) are prepared in 5% Duphasol-X (TM Duphar, castor oil-ethylene oxide derivative for emulsifying and solubilizing oil and other water-insoluble substances) by sonification for 10 min using a Branson B15 microtip ultrasonifier (setting 7). Groups of three mice (female, NMR, 18-22 grams) are injected with the test substance at 100 mg/kg intraperitoneally. Fifteen minutes after test substance administration the mice are challenged with 4 μCi intravenously of ^3 H-FNM (70-90 Ci/mole) in 200 μl physiological saline. Twenty minutes after ^3 H-FNM administration mice are sacrificed by decapitation, the forebrains rapidly excised (within 30 sec) and homogenized in 12 ml of icecold 25 mM KH2 PO4, pH 7.1, using an Ultra-Turrax homogenizer fitted with an N 10 shaft. […] The amounts of radioactivity on the filters are determined by conventional scintillation counting. […]
Results. The ED50 value is determined from dose response curves. If only one dose of test substance is administered the ED50 value is calculated as follows, provided that the inhibition of specific binding is within the range of 25-75%: [formula] where Co is specific binding in controls and Cx is specific binding in mice treated with test substance.

Row | SMILES | ED50 [mg/kg]
1 | Cn1c(=O)c2c(-c3noc(C4CC4)n3)ncn2c2cccc(C(F)(F)F)c21 [Compound 2, 3-(5-cyclopropyl-1,2,4-oxadiazol-3-yl)-4,5-dihydro-5-methyl-4-oxo-6-trifluoromethyl-imidazo[1,5-a]quinoxaline] | 0.09
2 | O=c1c2c(-c3noc(C4CC4)n3)ncn2c2ccccc2n1Cc1ccccc1 [Compound 1, 5-benzyl-3-(5-cyclopropyl-1,2,4-oxadiazol-3-yl)-4,5-dihydro-4-oxo-imidazo[1,5-a]quinoxaline] | 1.2
3 | Cn1c(=O)c2c(-c3nc(C4CC4)no3)ncn2c2cccc(C(F)(F)F)c21 [Compound 6, 3-(3-cyclopropyl-1,2,4-oxadiazol-5-yl)-4,5-dihydro-5-methyl-4-oxo-6-trifluoromethylimidazo[1,5-a]quinoxaline] | 0.21

Source: patent US5075304A, “Imidazoquinoxaline compounds and their preparation and use” (Novo Nordisk A/S, priority 1988, dated 1991)
